Measurements taken from paper PMC6421704 (Journal of Experimental & Clinical Cancer Research : CR, 2019).
Entries after “also recorded” stand apart in the source; their conditions may differ.

Columns and labels:
IGF1R = IGF1R (Homo sapiens, UniProt P08069); experiment: In vitro kinase activity assay (HDB Kinase Selectivity Profiling); assay type: biochemical; details: Kinase Glo Plus assay format
PDGFRα = PDGFRα (Homo sapiens, UniProt P16234); experiment: as above; assay type: biochemical; details: Kinase Glo Plus assay format
Ba/F3-Tpr-Met cells = experiment: cells; details: Mus musculus, read-out: IC50 of IL-3-independent growth
EPHA1 = EPHA1 (Homo sapiens, UniProt P21709); experiment: In vitro kinase activity assay (HDB Kinase Selectivity Profiling); assay type: biochemical; details: Kinase Glo Plus assay format
[1] = test system: VEGF receptor-mediated signaling pathway; experiment: VEGF receptor-mediated signaling pathway in A549 cells (Western blot); details: A549, Indo5 pretreated 2 h, 100 ng/ml VEGF 5 min
EGFR = EGFR (Homo sapiens, UniProt P00533); experiment: In vitro kinase activity assay (HDB Kinase Selectivity Profiling); assay type: biochemical; details: Kinase Glo Plus assay format
SK-N-SH xenograft = SK-N-SH xenograft mice; assay type: in vivo
Experimental: (§1) Tumor growth was measured using vernier calipers, and tumor volume (mm^3) was calculated as (L × W × H)/2. When the mean tumor volume reached 200 mm^3, the mice were randomized into four groups and treatment was initiated. Indo5 in DMSO was injected intraperitoneally into the mice once daily at the indicated doses. Tumor volume were recorded every 3 days until the study was terminated. The mice were sacrificed after 21 days of treatment. Solid tumors were excised and weighed, and the inhibition rate was calculated as […].

EGFR(T790,L858R) = EGFR(T790,L858R) (Homo sapiens, UniProt P00533, L858R/T790M); experiment: In vitro kinase activity assay (HDB Kinase Selectivity Profiling); assay type: biochemical; details: Kinase Glo Plus assay format
RET = RET (Homo sapiens, UniProt P07949); experiment: as above; assay type: biochemical; details: Kinase Glo Plus assay format
SMMC-7721 xenograft = SMMC-7721 xenograft mice; assay type: in vivo
Experimental: as §1

InsR = InsR (Homo sapiens, UniProt P06213); experiment: In vitro kinase activity assay (HDB Kinase Selectivity Profiling); assay type: biochemical; details: Kinase Glo Plus assay format
C-KIT(v654A) = C-KIT(v654A) (Homo sapiens, UniProt P10721, V654A); experiment: In vitro kinase activity assay (Caliper assay format); assay type: biochemical
c-Met signaling pathway = experiment: HGF-induced c-Met signaling pathway activation in HepG2 cells (Western blot); details: HepG2, 0.5 μM Indo5, pretreated 2 h, HGF 20 ng/ml 5 min
Experimental: (a) HepG2 cells were treated with HGF (10 ng/ml) alone or HGF (10 ng/ml) and BDNF (10 ng/ml) for the indicated time and the activation of c-Met signaling pathway was examined.
(§3) For western blots, cells were lysed with M-PER? Mammalian Protein Extraction Reagent (Pierce, Rockford, IL, USA). Then, western blot analysis was performed according to standard procedures. Chemiluminescent detection was conducted using supersignal substrate (Pierce) according to the manufacturer’s specifications.

FLT1 = FLT1 (Homo sapiens, UniProt P17948); experiment: In vitro kinase activity assay (HDB Kinase Selectivity Profiling); assay type: biochemical; details: Kinase Glo Plus assay format
[2] = Body weight in liver orthotopic mouse model; assay type: in vivo, mice; details: liver orthotopic mouse model, Indo5 up to highest dose (48 mg/kg); 48 mg/kg
[3] = test system: orthotopic HepG2 cell xenografts; experiment: Orthotopic HepG2 cell xenografts (liver orthotopic mouse model)
HepG2 cells [4] = experiment: HGF-induced HepG2 cell migration (Transwell); details: HepG2, HGF 20 ng/ml, 24 h, dose-dependent
Experimental: (§4) For the migration assay, 2×10^5 cells were seeded on 8µm polycarbonate membrane (Transwell; Costar). […] After 24h migration cells were counted.

Ba/F3-TrkB cells = experiment: BDNF-induced growth of TrkB-transfected Ba/F3 cells; details: BDNF 50 ng/ml 48 h, dose-dependent
Experimental: Cell proliferation was measured and the proliferation index was calculated. […] Data are shown as the mean ± S.D. and are representative of three independent experiments. ** p < 0.01, *** p < 0.001.

mouse hepatocytes = experiment: HGF-induced proliferation of mouse hepatocytes (MTS assay)
C-KIT = C-KIT (Homo sapiens, UniProt P10721); experiment: In vitro kinase activity assay (Caliper assay format); assay type: biochemical
[5] = Body weight in HepG2 xenograft nude mice model; assay type: in vivo; details: Indo5 vs control groups
MDCK cells [6] = experiment: MDCK cell proliferation (MTS assay); assay type: cell-based, Canine; details: scattering conditions
Experimental: (§2) All experiments were conducted three times.
Figure S1. […] Cell proliferation was anaylzed with MTS assay.

[7] = test system: MHCC97H orthotopic tumors
Source text: For the orthotopic xenograft mouse model, MHCC97H cells were inoculated subcutaneously in the right flank of each SCID mouse. When the tumor volumes reached approximately 1 cm^3, the mice were sacrificed, and the tumors were isolated and cut into 1 mm^3 pieces. The mice were anesthetized by an intraperitoneal injection of 1% sodium pentobarbital solution. A 1-cm longitudinal skin incision was made on the right upper axillary region of the abdomen of the mouse, the peritoneum was opened and the liver was exposed. The liver was punctured by a needle, and a 1 mm^3 tumor piece was implanted. The liver was put back into the abdominal cavity gently, and the surgical opening was closed using a 5–0 surgical suture.
The tumor weights were measured (b). […] Tumor-bearing mice were sacrificed when they became moribund.

AXL = AXL (Homo sapiens, UniProt P30530); experiment: In vitro kinase activity assay (HDB Kinase Selectivity Profiling); assay type: biochemical; details: Kinase Glo Plus assay format
HepG2 cells [8] = experiment: HepG2 cell proliferation under HGF migration conditions (MTS assay); assay type: cell-based, human
Experimental: as §2
Figure S2. […] Cell proliferation was anaylzed with MTS assay.

MHCC97L = experiment: cells; details: Homo sapiens, 72 h, read-out: IC50 (μM) ± SD
Experimental: as §2

MHCC97H = experiment: cells; details: Homo sapiens, 72 h, read-out: IC50 (μM) ± SD
Experimental: as §2

[9] = test system: c-Met^loTrkB^hi and c-Met^loTrkB^lo cells; experiment: Cell growth of cells expressing TrkB alone or both low; assay type: cell-based; details: Homo sapiens, read-out: IC50 value, range over cell lines
MDCK cells [10] = experiment: HGF-stimulated MDCK cell scattering; details: Indo5 pretreated 2 h, HGF 20 ng/ml 12 h, dose-dependent
Experimental: Cells were plated into 96-well plates (1.5 × 10^3 cells/well) and grown until small colonies appeared. […] After 24h incubation, cells were fixed with 90% methanol for 30min at room temperature and stained by 1% crystal violet. Scattered clones were photographed.

[11] = test system: HepG2 cell line tumor xenografts; experiment: TUNEL staining of HepG2 tumor xenografts; assay type: in vivo, nude mice; details: HepG2 xenograft, Indo5-treated
TrkB signaling = experiment: BDNF-induced TrkB signaling in HepG2 cells (Western blot); assay type: cell-based, human; details: HepG2, Indo5 pretreated 2 h, BDNF 50 ng/ml 5 min, dose-dependent
Experimental: Data are shown as the mean ± S.D. and are representative of three independent experiments. ** p < 0.01, *** p < 0.001.
(b) HepG2 cells were treated with BDNF (10 ng/ml) alone or BDNF (10 ng/ml) and HGF (10 ng/ml) for the indicated time and the activation of TrkB signaling pathway was examined. […] The activation of the TrkB and c-Met signaling pathways were examined. […] The activation of the TrkB and c-Met signaling pathways were examined. […] Data are shown as the mean ± S.D. and are representative of three independent experiments. **p < 0.01, ***p < 0.001
as §3

HepG2 cells [12] = experiment: BDNF-induced HepG2 cell migration; details: HepG2, BDNF 50 ng/ml, 24 h
Experimental: as §4

[13] = test system: HepG2 cell line tumor xenografts; experiment: HepG2 xenograft tumor model in nude mice; assay type: in vivo; details: Indo5 16 mg/kg, intraperitoneally once daily, 21 days
Experimental: First, 2 × 10^6 HepG2 cells, 4 × 10^6 MHCC 97H cells, 4 × 10^6MHCC 97 L cells, 2 × 10^6 A549 cells, or 5 × 10^6 SMMC-7721 cells in a volume of 200 μl PBS were inoculated subcutaneously in the right flank of each mouse. Tumor growth was measured using vernier calipers, and tumor volume (mm^3) was calculated as (L × W × H)/2. When the mean tumor volume reached 200 mm^3, the mice were randomized into four groups and treatment was initiated. […] Tumor volume were recorded every 3 days until the study was terminated. The mice were sacrificed after 21 days of treatment.
The inhibition rate was calculated.
The tumor weights were measured, and the inhibition rate was calculated. Data are shown as the mean ± S.D. and are representative of three independent experiments. **p < 0.01, ***p < 0.001

[14] = test system: c-Met and TrkB coexpressing cell lines (c-Met^hiTrkB^hi); experiment: Cell growth of c-Met and TrkB coexpressing cell lines; assay type: cell-based; details: Homo sapiens, read-out: IC50 value, range over cell lines
HCC metastasis in lung = experiment: Lung metastasis in mice bearing MHCC97H orthotopic tumors (H&E); assay type: in vivo; details: Indo5 treatment

EPHA1, sequence (P21709 26-976): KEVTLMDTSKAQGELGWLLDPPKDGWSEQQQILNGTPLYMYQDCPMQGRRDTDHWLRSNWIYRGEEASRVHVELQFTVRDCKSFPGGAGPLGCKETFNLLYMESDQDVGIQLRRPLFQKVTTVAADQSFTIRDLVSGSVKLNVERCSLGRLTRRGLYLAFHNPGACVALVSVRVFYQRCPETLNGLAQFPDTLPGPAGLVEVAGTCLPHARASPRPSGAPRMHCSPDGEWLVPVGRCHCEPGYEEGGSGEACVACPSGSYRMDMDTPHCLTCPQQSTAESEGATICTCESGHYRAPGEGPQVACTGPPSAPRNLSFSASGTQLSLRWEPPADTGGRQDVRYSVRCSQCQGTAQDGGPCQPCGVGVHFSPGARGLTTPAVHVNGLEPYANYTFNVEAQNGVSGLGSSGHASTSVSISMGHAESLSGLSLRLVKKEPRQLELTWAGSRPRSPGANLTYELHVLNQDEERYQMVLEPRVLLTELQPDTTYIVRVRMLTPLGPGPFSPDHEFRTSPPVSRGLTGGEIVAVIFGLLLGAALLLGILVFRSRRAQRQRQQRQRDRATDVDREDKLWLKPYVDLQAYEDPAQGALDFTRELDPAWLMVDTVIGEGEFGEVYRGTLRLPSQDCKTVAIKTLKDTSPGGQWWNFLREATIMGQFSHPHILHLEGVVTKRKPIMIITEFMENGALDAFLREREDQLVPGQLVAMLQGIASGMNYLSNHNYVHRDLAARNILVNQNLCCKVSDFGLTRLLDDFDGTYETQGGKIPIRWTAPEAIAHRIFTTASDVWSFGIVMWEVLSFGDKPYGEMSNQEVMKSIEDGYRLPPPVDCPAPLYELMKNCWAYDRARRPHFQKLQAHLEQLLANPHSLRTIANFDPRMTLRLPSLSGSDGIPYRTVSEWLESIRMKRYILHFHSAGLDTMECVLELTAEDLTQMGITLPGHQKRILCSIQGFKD
RET, sequence (P07949 29-1114): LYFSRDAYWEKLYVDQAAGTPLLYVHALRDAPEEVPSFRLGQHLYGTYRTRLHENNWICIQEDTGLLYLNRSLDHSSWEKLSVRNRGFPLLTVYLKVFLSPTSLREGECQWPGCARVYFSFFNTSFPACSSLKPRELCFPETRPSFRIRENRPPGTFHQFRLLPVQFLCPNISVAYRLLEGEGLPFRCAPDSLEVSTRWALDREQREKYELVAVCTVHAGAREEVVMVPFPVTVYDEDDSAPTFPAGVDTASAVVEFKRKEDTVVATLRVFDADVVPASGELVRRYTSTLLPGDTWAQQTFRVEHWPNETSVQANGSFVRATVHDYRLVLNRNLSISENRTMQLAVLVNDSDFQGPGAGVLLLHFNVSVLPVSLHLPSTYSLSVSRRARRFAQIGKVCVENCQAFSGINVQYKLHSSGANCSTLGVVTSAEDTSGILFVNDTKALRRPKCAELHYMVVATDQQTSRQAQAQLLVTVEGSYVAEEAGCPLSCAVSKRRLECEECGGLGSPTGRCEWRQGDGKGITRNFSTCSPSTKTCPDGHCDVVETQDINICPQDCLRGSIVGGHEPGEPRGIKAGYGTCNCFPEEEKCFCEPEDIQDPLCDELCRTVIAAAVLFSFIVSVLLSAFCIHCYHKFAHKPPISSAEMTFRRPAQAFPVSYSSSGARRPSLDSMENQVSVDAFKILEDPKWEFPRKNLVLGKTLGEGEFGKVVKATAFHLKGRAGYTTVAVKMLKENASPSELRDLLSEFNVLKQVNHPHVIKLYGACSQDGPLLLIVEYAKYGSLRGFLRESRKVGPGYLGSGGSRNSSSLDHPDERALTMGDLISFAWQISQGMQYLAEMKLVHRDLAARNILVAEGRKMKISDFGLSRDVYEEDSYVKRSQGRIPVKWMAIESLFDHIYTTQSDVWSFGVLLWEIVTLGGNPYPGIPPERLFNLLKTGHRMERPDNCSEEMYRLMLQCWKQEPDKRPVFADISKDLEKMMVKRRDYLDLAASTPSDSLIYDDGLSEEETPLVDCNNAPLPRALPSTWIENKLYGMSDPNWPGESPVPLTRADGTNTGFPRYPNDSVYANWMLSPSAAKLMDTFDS
EGFR, sequence (P00533 25-1210): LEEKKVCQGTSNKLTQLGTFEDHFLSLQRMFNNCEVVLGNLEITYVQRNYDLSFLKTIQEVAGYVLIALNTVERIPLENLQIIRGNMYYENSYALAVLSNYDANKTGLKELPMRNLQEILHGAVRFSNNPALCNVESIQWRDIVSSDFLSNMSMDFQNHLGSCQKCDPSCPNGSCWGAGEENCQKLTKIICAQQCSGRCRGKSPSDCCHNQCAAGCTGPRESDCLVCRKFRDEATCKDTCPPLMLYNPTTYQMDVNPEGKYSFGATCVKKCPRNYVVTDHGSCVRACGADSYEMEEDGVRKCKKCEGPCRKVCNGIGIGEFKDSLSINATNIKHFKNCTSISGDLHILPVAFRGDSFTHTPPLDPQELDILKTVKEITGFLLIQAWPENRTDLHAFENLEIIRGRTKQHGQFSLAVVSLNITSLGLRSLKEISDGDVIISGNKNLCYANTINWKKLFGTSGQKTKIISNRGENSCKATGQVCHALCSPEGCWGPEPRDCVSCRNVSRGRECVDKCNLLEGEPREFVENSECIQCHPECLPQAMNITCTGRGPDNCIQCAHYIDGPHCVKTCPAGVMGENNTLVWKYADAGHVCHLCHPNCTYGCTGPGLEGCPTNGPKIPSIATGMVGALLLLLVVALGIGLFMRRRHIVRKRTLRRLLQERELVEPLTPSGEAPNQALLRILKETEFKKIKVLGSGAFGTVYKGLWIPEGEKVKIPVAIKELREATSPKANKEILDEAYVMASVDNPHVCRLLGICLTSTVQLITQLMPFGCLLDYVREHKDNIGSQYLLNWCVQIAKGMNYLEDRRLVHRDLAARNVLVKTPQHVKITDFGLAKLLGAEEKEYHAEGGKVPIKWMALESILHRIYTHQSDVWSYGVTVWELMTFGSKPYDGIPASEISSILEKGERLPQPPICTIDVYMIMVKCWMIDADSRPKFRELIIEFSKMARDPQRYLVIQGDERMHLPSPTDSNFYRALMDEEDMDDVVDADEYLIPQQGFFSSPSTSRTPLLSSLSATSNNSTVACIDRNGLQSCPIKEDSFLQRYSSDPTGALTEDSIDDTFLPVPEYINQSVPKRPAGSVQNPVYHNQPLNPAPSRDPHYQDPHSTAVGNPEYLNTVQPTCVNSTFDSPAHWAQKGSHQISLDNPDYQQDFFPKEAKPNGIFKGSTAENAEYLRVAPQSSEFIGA
PDGFRα, sequence (P16234 24-1089): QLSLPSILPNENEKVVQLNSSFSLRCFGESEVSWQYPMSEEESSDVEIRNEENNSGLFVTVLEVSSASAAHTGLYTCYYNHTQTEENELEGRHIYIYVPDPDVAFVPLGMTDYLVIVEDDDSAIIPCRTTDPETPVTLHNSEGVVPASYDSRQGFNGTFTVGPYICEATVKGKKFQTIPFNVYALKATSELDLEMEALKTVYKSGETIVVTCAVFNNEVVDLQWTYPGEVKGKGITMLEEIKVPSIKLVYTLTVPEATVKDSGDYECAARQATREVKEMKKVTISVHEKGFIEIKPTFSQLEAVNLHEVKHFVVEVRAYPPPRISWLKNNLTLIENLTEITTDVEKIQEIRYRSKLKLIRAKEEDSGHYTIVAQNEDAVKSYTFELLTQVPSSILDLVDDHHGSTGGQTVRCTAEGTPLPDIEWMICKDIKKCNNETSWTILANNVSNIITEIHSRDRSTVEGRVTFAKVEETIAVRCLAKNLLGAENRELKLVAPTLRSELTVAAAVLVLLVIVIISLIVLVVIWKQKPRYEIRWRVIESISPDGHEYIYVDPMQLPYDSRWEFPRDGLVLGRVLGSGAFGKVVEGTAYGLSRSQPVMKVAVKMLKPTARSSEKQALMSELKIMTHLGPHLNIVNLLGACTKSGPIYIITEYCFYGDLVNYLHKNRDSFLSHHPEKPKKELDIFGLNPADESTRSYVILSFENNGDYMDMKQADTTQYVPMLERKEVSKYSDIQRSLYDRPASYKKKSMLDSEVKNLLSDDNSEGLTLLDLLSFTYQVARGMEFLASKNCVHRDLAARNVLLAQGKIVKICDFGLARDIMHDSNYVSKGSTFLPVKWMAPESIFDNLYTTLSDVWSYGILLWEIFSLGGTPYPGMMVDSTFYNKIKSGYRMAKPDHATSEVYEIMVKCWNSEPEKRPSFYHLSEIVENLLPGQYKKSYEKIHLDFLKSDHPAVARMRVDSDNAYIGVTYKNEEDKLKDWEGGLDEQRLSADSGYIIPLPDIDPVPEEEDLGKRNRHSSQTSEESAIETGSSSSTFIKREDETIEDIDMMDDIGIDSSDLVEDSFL
EGFR(T790,L858R), sequence (P00533 669-1210 T790M/L858R limits assumed): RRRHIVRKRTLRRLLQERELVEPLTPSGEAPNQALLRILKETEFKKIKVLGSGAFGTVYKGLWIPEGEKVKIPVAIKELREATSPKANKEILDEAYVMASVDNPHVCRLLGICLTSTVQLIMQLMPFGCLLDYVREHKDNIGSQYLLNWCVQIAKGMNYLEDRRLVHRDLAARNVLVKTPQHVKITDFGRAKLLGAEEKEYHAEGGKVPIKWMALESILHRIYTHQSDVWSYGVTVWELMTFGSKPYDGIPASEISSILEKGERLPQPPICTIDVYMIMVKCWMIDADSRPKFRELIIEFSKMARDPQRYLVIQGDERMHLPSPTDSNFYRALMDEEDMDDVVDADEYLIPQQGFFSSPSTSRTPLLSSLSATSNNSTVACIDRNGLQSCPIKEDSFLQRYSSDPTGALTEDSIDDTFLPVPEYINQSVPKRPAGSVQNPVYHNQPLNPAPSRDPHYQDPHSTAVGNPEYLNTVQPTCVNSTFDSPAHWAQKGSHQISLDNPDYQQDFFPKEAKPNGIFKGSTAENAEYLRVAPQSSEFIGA

Cc1ccccc1NS(=O)(=O)c1ccc2c(c1)/C(=C/c1nc3ccccc3[nH]1)C(=O)N2 [Indo5, 3-(1H-benzimidazol-2-methylene)-5-(2-methylphenylaminosulfo)-2-indolone]
IC50 (IGF1R): > 10 µM | IC50 (PDGFRα): > 10 µM | IC50 (Ba/F3-Tpr-Met cells): 0.618 µM | IC50 (EPHA1): > 10 µM | activation of VEGF receptor-mediated signaling pathway [1]: no effect | IC50 (EGFR): > 10 µM | xenograft tumor growth (SK-N-SH xenograft): dose-dependent inhibitory effect | IC50 (EGFR(T790,L858R)): > 10 µM | IC50 (RET): > 10 µM | xenograft tumor growth (SMMC-7721 xenograft): dose-dependent inhibitory effect | IC50 (InsR): > 10 µM | IC50 (C-KIT(v654A)): > 10 µM | HGF-induced c-Met signaling pathway activation (c-Met signaling pathway): dramatically suppressed | IC50 (FLT1): > 10 µM | body weight change [2]: no obvious weight changes; also recorded: not associated with loss of body weight | rate of tumor growth inhibition ([3]; orthotopic HepG2, 8 mg/kg intraperitoneally once daily for 3 weeks): approximately 49% | rate of tumor growth inhibition ([3]; orthotopic HepG2, 16 mg/kg intraperitoneally once daily for 3 weeks): 61.2% | overall health of the animals ([3]; orthotopic HepG2 model, Indo5 vs control, data not shown): not adversely affected | HGF-induced cell migration (HepG2 cells [4]): significantly suppressed | BDNF-induced growth (Ba/F3-TrkB cells): inhibited | cytotoxicity (mouse hepatocytes; 0.5 μM Indo5, 72 h, data not shown): no cytotoxicity was observed | HGF-induced cell proliferation (mouse hepatocytes; mouse hepatocytes, HGF 20 ng/ml 48 h, MTS): dose-dependently inhibited | IC50 (C-KIT): > 10 µM | mouse body weights [5]: almost unchanged | effect on cell proliferation (MDCK cells [6]): No obvious effect | survival rate ([7]; 24 mg/kg Indo5 once daily by oral gavage): 40% | overall survival rate ([7]; 48 mg/kg Indo5 once daily by oral gavage): 77.7% | IC50 (AXL): > 10 µM | effect on cell proliferation (HepG2 cells [8]): weak inhibitory effect | IC50 (MHCC97L): 1.28 ± 0.016 µM | IC50 (MHCC97H): 1.11 ± 0.018 µM | IC50 [9]: 2.98 to 9.19 µM | HGF-stimulated cell scattering (MDCK cells [10]): blocked | apoptosis in tumor tissues (TUNEL staining) [11]: increased apoptosis | BDNF-induced TrkB signaling (TrkB signaling): decreased | BDNF-induced cell migration (HepG2 cells [12]): suppressed | inhibition rate (tumor weight) [13]: 65.2% | IC50 [14]: 1.11 to 1.87 µM | HCC metastasis in lung (HCC metastasis in lung): dramatic decrease
